According to patent publication US20040039554A1, “Iterative analysis of non-responding population in the design of pharmacogenetic studies” (priority 2000, published 2004):
Where a name gives a salt, the structure may show the parent alone.

Assays:
[1] = test system: patients with Irritable Bowel Syndrome (IBS); settings: double blind, placebo controlled studies; cited from earlier work
[2] = test system: female patients with IBS (non-constipated); assay: Relief of IBS symptoms in double-blind, placebo controlled clinical trials of alosetron, stratified by 5HTT genotype; assay type: in vivo, human; settings: in each of the three 5HTT genotypes
From the text: FIG. 1 is a graph based on data collected from female patients enrolled in clinical trials of alosetron for the treatment of IBS. The study population was comprised of non-constipated individuals with IBS. The subjects were divided into 5HTT genotypes. Of the 219 subjects, 71(32.4%) were genotype del/del (deletion/deletion, alternatively denoted as “1/1”) 5HTT, 75 (34.2%) were genotype del/ins (deletion/insertion, alternatively denoted as “1/2”) 5HTT and 73 (33.3%) were genotype ins/ins (insert/insert, alternatively denoted as “2/2”) 5HTT. […] “Response” was defined as relief of IBS symptoms (abdominal pain and discomfort) during six weeks of a twelve week treatment study. Two hundred and nineteen subjects, received either alosetron (102 subjects) or matched placebo (117 subjects). The proportion of patients achieving response following treatment with alosetron was 68% (21/31) for del/del 5HTT, 64% (21/33) for del/ins 5HTT and 58% (22/38) for ins/ins 5HTT. The proportion of patients achieving response following treatment with placebo was 58% (23/40) for del/del 5HTT, 38% (16/42) for del/ins 5HTT and 34% (12/35) for ins/ins 5HTT. […]
The subjects' response to alosetron in the clinical trial setting was reviewed and correlated with genotype. […] The incidence of various other effects, including constipation, was also recorded. […]

For `Cc1[nH]cnc1CN1CCc2c(c3ccccc3n2C)C1=O` [alosetron, Alosetron hydrochloride], the “effect on pain and bowel function in patients with IBS” value [1] is listed as “reduce pain and improve bowel function” and the “effectiveness compared with placebo in relieving IBS symptoms” value [2] is listed as “more effective than placebo”.
